Assay results taken from US8901304B1, “Benzo[D]imidazole derivatives of piperidine and piperazine” (King Fahd University of Petroleum and Minerals, priority 2013, dated 2014).

Structure (SMILES)	melting point
O=c1[nH]c2ccc(C3CCN(Cc4ccc(-c5ccccc5)cc4)CC3)cc2[nH]1 [5a, 5-(1-(biphenyl-4-ylmethyl)piperidin-4-yl)-1H-benzo[d]imidazol-2(3H)-one]	> 260 °C
O=c1[nH]c2ccc(C3CCN(Cc4cncc(-c5ccccc5)c4)CC3)cc2[nH]1 [5c, 5-(1-((5-phenylpyridin-3-yl)methyl)piperidin-4-yl)-1H-benzo[d]imidazol-2(3H)-one]	236 to 237 °C
O=c1[nH]c2ccc(C3CCN(Cc4cncc(C5=CCCC5)c4)CC3)cc2[nH]1 [5f, 5-(1-((5-cyclopentenylpyridin-3-yl)methyl)piperidin-4-yl)-1H-benzo[d]imidazol-2(3H)-one]	249 to 250 °C

Other lines, results leading:

melting point	Structure (SMILES)
> 260 °C	O=c1[nH]c2ccc(N3CCN(Cc4ccc(-c5ccccc5)cc4)CC3)cc2[nH]1 [6a, 5-(4-(biphenyl-4-ylmethyl)piperazin-1-yl)-1H-benzo[d]imidazol-2(3H)-one]
> 260 °C	O=c1[nH]c2ccc(N3CCN(CC4(F)C=CC(c5ccccc5)=CC4)CC3)cc2[nH]1 (centres unmarked) [6b, 5-(4-((4-Fluorobiphenyl-4-yl)methyl)piperazin-1-yl)-1H-benzo[d]imidazol-2(3H)-one]
246 to 247 °C	O=c1[nH]c2ccc(N3CCN(Cc4cncc(-c5ccc(F)cc5)c4)CC3)cc2[nH]1 [6d, 5-(4-((5-(4-fluorophenyl)pyridin-3-yl)methyl)piperazin-1-yl)-1H-benzo[d]imidazol-2(3H)-one]
244 to 245 °C	O=c1[nH]c2ccc(N3CCN(Cc4cccc(C5=CCCC5)c4)CC3)cc2[nH]1 [6e, 5-(4-(3-cyclopentenylbenzyl)piperazin-1-yl)-1H-benzo[d]imidazol-2(3H)-one]
255 to 256 °C	O=c1[nH]c2ccc(N3CCN(Cc4cncc(C5=CCCC5)c4)CC3)cc2[nH]1 [6f, 5-(4-((5-cyclopentenylpyridin-3-yl)methyl)piperazin-1-yl)-1H-benzo[d]imidazol-2(3H)-one]
